The text below walks through data of US20120046273A1, “COMPOUNDS AND COMPOSITIONS FOR COGNITION-ENHANCEMENT, METHODS OF MAKING, AND METHODS OF TREATING” (MITHRIDION, INC., priority 2009, published 2012).

Structures can show the parent of a compound that is named as a salt. Where two headings read alike, the source gives them in different places.

Data set [1] in a line: Plasma concentration in rats, iontophoresis patch versus oral gavage. The class given is in vivo. To be noted: Long Evans Hooded, rat. From the text: Two patches were made up, consisting (in order from the outer layer to the skin contacting surface, respectively): adhesive tape (Transpore, 27 mm wide, 3M), circular stainless steel electrodes (22 mm dia) with a central hole for a stainless steel machine screw to which the electrode wire was attached, and 2 layers of 3MM CHR filter paper (Cat #3030-861, Whatman International, Ltd).
The mid-dorsal area of a Long Evans Hooded rat (approximate weight, 320 grams), surgically prepared with a jugular vein catheter (Charles River), was shaved and the skin was then cleaned using an Electrode Prep Pad (Professional Disposables, Inc, Cat #B59800). […]
Blood (400 μl) was withdrawn from the catheters in each rat every 30 minutes, transferred to 1.5 ml centrifuge tubes containing heparin (15 units/tube), and the plasma was separated by centrifugation from the cellular components. The plasma samples were maintained at 4 deg C. until analyzed. […]
The ultra-filtrates were subjected to reverse-phase liquid chromatography using a 150×2.1 mm Agilent C8 reverse-phase column on a Shimadzu Prominence LC, eluting the MCD-386 with an isocratic flow of 2% acetonitrile+0.1% formic acid. The concentration of MCD-386 in the column effluent was measured using an Applied Biosystems API-3200 triple quadrupole mass spectrometer equipped with a Turbo V source (electrospray sample injection) system. […]

Data set [2] can be described thus: Brain concentrations in rats after oral gavage. The class given is in vivo, rat. To be noted: rat, 10 mg/kg po, relative to MCD-386. The procedure:
Long-Evans Hooded rats (Charles River: male, 250-350 g) were dosed with solutions of test compounds in PBS by oral gavage. At the desired time after dosing, the animals were anesthetized with isoflurane, and then euthanized by cervical dislocation. Blood was obtained by cardiac puncture, transferred to a 1.5 mL microcentrifuge tube containing 15U Heparin, and the plasma recovered after centrifugation. Brains were dissected, weighed, immediately chilled to 4° C., and homogenized using a PowerGen 125 homogenizer in five volumes of ice-cold 2% formic acid. Proteins were precipitated from plasma and brain homogenate with two and five volumes respectively of ice-cold 2% formic acid and clarified by centrifugation. The supernatant was ultra-filtered by centrifugation through a 3K MWCO spin column (Pall Life Sciences), following the manufacturer's instructions. The concentration of compound in the ultra-filtrate was subjected to reverse-phase liquid chromatography using a 150×2.1 mm Agilent C8 reverse-phase column on a Shimadzu Prominence LC, eluting the compounds with a gradient of 2% to 50% of acetonitrile+0.1% formic acid for compound MI-50,382, or an isocratic flow of 2% acetonitrile+0.1% formic acid for the rest of the compounds listed. The concentration of the compound in the column effluent was measured using an Applied Biosystems API-3200 triple quadrupole mass spectrometer equipped with an electrospray sample injection system. The counts of the characteristic parent and product ions of each test compound were converted to concentration units by comparison with a standard calibration curve.

The nature of data set [3]: Metabolites in serum and urine of dosed rats (LC-MS). To be noted: rat serum/plasma or urine, oral dosing. It counts as in vivo. As for the experimental part: Oxadiazoles disclosed herein as well as other oxadiazoles were investigated to determine the formation of metabolites. Animals were dosed, blood taken, serum prepared, serum proteins precipitated and ultrafiltrates prepared as described in Example 6. In separate experiments, urine was collected from rats for 16-24 hours after dosing, using standard metabolic cages. The urine container and collected urine were maintained at 4° C. Urine was lyophilized, taken back into water. The ultrafiltrate was prepared by adding formic acid to a final concentration of 1% to the urine samples, then filtered through a 0.2 um nylon membrane. The ultrafiltrate was subjected to LC-MS analysis. Instead of measuring the product ions in Q3, manual Q1 scans of the liquid chromatograph were undertaken, seeking parent ions of potential metabolites of the compounds. The criteria for identifying metabolites were as follows: (1) the ion should be present in the sera or urines of dosed rats, but not in sera or urines from non-dosed rats (2) the ion should be identifiable as a metabolic derivative of the dosed compound (e.g. loss of a functional chemical moiety, addition of a hydroxyl group or a glucuronic acid moiety, etc). Metabolites were determined not to be present if no compound meeting the above criteria could be detected in serum or urine.

Data set [4] relates to apomorphine induced climbing. Put plainly: Apomorphine induced climbing model of psychosis. The class given is in vivo, CD-I mice. Particulars: mice, sc. As for the experimental part:
As described in Costall et. al. European Journal of Pharmacology 1978, 50, 39. individual CD-I mice, 1-2 months old, were placed in a cylindrical wire mesh cage (13.2 cm high×13.2 cm diameter) constructed of steel wire 1 mm thick spaced at 1.2 cm^2. Cylinders were placed in a standard OptiMICE mouse cage (29×32×9×29 cm wide and 14 cm high) with adequate wood chip bedding provided. Observations of climbing (defined as 3 or more paws off the ground) were carried out every 5 minutes at a duration of 1 minute for 30 minutes. Animals were injected subcutaneously under isoflurane anesthesia with test compounds, reference compounds, which included clozapine, haloperidol, olanzapine and xanomeline, or PBS as a control. This was followed 5 minutes later by 2 mg/kg apomorphine hydrochloride. All drugs were dissolved in PBS or a mixture of (by volume) 96% PBS and 4% hydroxypropyl-beta-cyclodextrin, and dosed at a rate of 5 ml per kilogram of body weight. Following injections, animals were replaced in the mesh cages and observed for climbing (defined as 3 or more paws off the ground) every 5 minutes for a duration of 1 minute for 60 minutes after dosing.

A short description of data set [5]: Brain/plasma concentration ratio after oral dosing to rats. To be noted: rat.
Data set [6] can be described thus: Serum pharmacokinetics of immediate release capsules in human subjects. It counts as in vivo. To be noted: male; for Cmax / half-life: oral. As for the experimental part:
The hydrochloride salt of MCD-386 (“MCD-386 HCl”) was formulated with the following excipients and loaded into #3 hard gelatin capsules (5mg dose) or #2 hard gelatin capsules (0.2 mg dose).
(§1) A single 5 mg capsule or 5×0.2 mg capsules (1 mg total dose) were administered orally to healthy male volunteer human subjects with 125 ml of water. Six such subjects receiving the 5 mg dose, and a different 6 subjects received the 1 mg dose.
Venous blood samples were drawn at various intervals after dosing from each subject into standard tubes for bioanalytical and pharmacokinetic analysis. The blood was allowed to clot, and the serum separated, using common clinical laboratory techniques. Serum samples were stored at −20 deg C. until used for analysis.
MCD-386 HCl, which exists in serum principally as the protonated form of MCD-386, was assayed in clinical serum samples as follows. 200 μL aliquots of serum samples were spiked with 50.0 μL of diluent for subject samples and QC samples and 50 μL of the appropriate intermediate standard solution for standards. Twenty five microliters (25.0 μL) of working internal standard stock solution and 40.0 μL of 10 N sodium hydroxide was then added and the samples were vortex mixed. Three milliliters (3.00 mL) of ethyl acetate was added followed by 5 minutes of vigorous vortexing and centrifugation. The top organic layer was transferred to a clean tube, evaporated to dryness, and the sample was reconstituted with 100 μL of diluent (0.1% formic acid). A 10 μL aliquot of this reconstituted sample was injected into Phenomenex Synergy 4 μ POLAR-RP, 75×2.0 mm (P/N 00C-4336-B0) on a Waters Acuity UPLC LC system, and eluted using a gradient of from 12% to 90% acetonitrile containing 0.1% formic acid/0.1% formic acid in water. The eluant flow of the LC was injected by Turbo Ion Spray (positive ion) into a Sciex API 4000 (Applied Biosystems). The MS/MS transitions monitored were 181.1 m/z to 111.0 m/z for MCD-386 HCl and 186.1 m/z to 111.1 m/z for the internal standard, D5- MCD-386 HCl. The calibration curve was linear between 0.100 ng/mL and 50.0 ng/mL for MCD-386 HCl. The lower limit of quantitation (LLOQ) was 0.100 ng MCD-386 HCl per mL of serum. MCD-386 HCl concentrations are expressed as free base.
The bioanalytical results were analyzed using Win Nonlin software and common pharmacokinetic methods known to those skilled in the art.

Data set [7] deals with healthy male volunteer human subjects. The experiment in a line: Cholinergic side effects of immediate release capsules in human subjects. The class given is in vivo. The procedure: as §1
Subjects were monitored, among other things, for typical signs of muscarinic cholinergic action, such as increased salivation, lachrimation and diaphoresis.

The nature of data set [8]: Metabolites in human serum samples. The class given is in vivo. Particulars: 5mg dose cohort. The procedure:
The bioanalytical method for the extraction of metabolites from serum samples entailed adding 450 uL of a 90% acetonitrile +0.1% formic acid solution to 50 uL of the serum samples. The samples were vortexed and centrifuged at 16,000×g at 4° C. for 10 minutes. The supernatants were transferred to 3K molecular weight cut-off (MWCO) spin filters (Pall, Nanosep, #82031-346). Samples were filtered by centrifugation at 13,000×g at 4° C. for 20 minutes. The filtrates were transferred to a 96-well plate and sealed for LC/MS/MS analysis. The system used for this analysis was a Shimadzu Prominence HPLC system. […] The autosampler was maintained at 4° C. Injection volumes for all samples and standards were 40 uL. MRM methods for two possible metabolites were made. An API 3200 triple-quadrupole mass spectrometer with a Turbo V source (Applied Biosystems) was used, following commonly used procedures which would be readily set up by a person skilled in the art of LC-MS/MS. The counts of the characteristic parent and product ions of the free base metabolites were converted to concentration units by comparison with a standard calibration curve.

In the case of `CCc1noc(C2CN=CNC2)n1` (stereo not drawn) [Compound 18, 3-ethyl-5-(1,4,5,6-tetrahydropyrimidin-5-yl)-1,2,4-oxadiazole], the “PAMPA (? × 106)” value in “PAMPA test” is reported as 0.05 ? × 106. Besides, the concentration at 30 minutes in data set [1] (other: iontophoresis patch (transdermal), 3.2 mg/kg, iontophoresis patch, dose 3.2 mg/kg) was roughly 850 nM; in data set [1] (po, 10 mg/kg, oral gavage), 911 nM. In data set [2], the “Brain Cmax (10 mg/kg po) MCD-386 = 1.00” value was 1.00. Also, in data set [3], the “Presence of metabolites (10 mg/kg po)” value was “Yes”. Besides, the “activity in the apomorphine induced climbing model” value in data set [4] was “inactive”. The Kp at 1 hour in data set [5] lay in the range of 0.07 to 0.13.

As for `CCc1noc(C2CN=CNC2)n1` (stereo not drawn) [MCD-386 HCl, 5-(3-ethyl-1,2,4-oxadiazol-5-yl)-1,4,5,6-tetrahydropyrimidine], the Cmax in [6] (6 subjects receiving 1 mg of MCD-386 HCl) is no more than 8 ng/mL; in data set [6] (6 subjects receiving 5 mg of MCD-386 HCl) it was 7.9 to 25.2 ng/mL. For the same compound, the Tmax in [6] (oral immediate release capsules) was in the range of 1 to 1.5 h. Further, the half-life in [6] (0.2 mg, cohort of 6 subjects receiving 0.2 mg, +/- SD, read-out: mean half-life (converted)) is 1.2 h; in [6] (1 mg, 1 mg cohort, +/- SD, read-out: half-life of the free base (converted)) it was 1.44 h; in data set [6] (5 mg, 5 mg cohort excluding one subject, read-out: mean half-life for the other 5 subjects (converted)), 1.44 h; in [6] (5 mg, 5 mg cohort, +/- SD, read-out: half-life of the free base (converted)), 1.71 h; in [6] (5 mg, 5 mg cohort, subject with the longest half-life, read-out: half-life in one subject (converted)), 2.93 h. Also, in [7] (1 mg total dose cohort, 6 subjects), the “observable cholinergic side effects” value is on record as “none of the subjects”. The “subjects with mild hypersalivation” value in [7] (5 mg cohort) is listed as “One”. Moreover, the “subjects with mild, transient diaphoresis” value in data set [7] (5 mg cohort) is “Two”. In addition, in data set [7] (5 mg cohort), the “subjects with moderate diaphoresis” value is listed as “two”. The “signs of muscarinic cholinergic activity” value in data set [7] (5 mg cohort, 6 subjects) was “four subjects showed signs of muscarinic cholinergic activity”. Also, the “main metabolite of the free base identified in serum samples” value in data set [8] is “five out of six subjects”.
